From patent publication US8357518B2, “Thermostable enzymes for the hydrolysis of mannan-containing polysaccharides” (The Board of Trustees of the University of Illinois, priority 2010, dated 2013)
Where a chain is given by its changes, count along the chain named.

Assays:
Format in all cases: biochemical
[1] = molecular target: T1, Caldanaerobius polysaccharolyticus endo-β-mannanase Man5B, wild type, SEQ ID NO: 31 (Caldanaerobius polysaccharolyticus, UniProt D9J0D7); experiment: Catalytic efficiency with oligosaccharides, HPAEC (Man5B); settings: value for GM3 higher than that for GM2
T1 sequence (D9J0D7 entry or part of it): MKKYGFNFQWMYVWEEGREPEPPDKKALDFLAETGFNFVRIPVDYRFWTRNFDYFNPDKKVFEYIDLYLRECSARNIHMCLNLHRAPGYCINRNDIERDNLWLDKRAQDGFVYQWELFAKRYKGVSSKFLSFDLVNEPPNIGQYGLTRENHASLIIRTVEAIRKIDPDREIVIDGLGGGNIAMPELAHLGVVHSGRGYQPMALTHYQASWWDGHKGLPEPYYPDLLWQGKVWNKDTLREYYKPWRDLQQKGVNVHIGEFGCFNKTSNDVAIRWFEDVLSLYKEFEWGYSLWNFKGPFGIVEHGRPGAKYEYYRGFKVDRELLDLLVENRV
Procedure: Cloning, expression, and purification of Man5A-TM1, Man5A-TM2 and Man5B. C. polysaccharolyticus was cultured in TYG medium and DNA was isolated from mid-log cultures and purified using the Qiagen DNeasy Blood and Tissue kit with an integrated RNase treatment step. The genome of C. polysaccharolyticus was partially sequenced by the W. M. Keck Biotechnology Center at the University of Illinois at Urbana-Champaign. A Newbler assembly was generated which is comprised of ½ plate of FLX PE 454 data and ½ plate of 8 kb paired-end GSFLX Titanium data using a Genome Sequencer instrument from 454 Life Sciences (Branford, Conn.). The partial genome sequence was uploaded onto the Rapid Annotation using Subsystem Technology (RAST) server (Aziz et al., BMC Genomics, 9:75, 2008). Auto-annotation of the C. polysaccharolyticus partial genome sequence identified ORF0760 as a gene predicted to encode a bifunctional β-D-mannanase/endoglucanase (Man5B). Man5A was previously identified in a recombinant phage library of C. polysaccharolyticus genomic DNA, which was screened for endoglucanase activity (Cann et al., J Bacteriol, 181:1643, 1999) and the full sequence of this gene was also identified in the partial genome sequence for C. polysaccharolyticus. […]

[2] = molecular target: T2, Caldanaerobius polysaccharolyticus endo-β-mannanase Man5B (SEQ ID NO: 31) variant E137Q (Caldanaerobius polysaccharolyticus, UniProt D9J0D7, E137Q); experiment: Kinetic properties with pNP-linked sugars (Man5B E137Q); settings: relative to wild type
T2 sequence (D9J0D7 1-330 E137Q): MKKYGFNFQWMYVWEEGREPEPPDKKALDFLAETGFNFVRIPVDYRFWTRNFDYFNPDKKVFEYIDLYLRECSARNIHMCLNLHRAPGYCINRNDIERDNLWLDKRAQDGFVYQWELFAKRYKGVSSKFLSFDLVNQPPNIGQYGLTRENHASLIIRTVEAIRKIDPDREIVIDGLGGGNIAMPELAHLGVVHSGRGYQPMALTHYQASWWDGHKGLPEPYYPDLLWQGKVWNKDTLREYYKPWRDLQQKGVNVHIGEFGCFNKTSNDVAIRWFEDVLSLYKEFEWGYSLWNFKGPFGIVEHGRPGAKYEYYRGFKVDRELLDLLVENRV
Procedure: (§1) Determination of kinetic properties for wild type and mutant Man5B with pNP-linked sugars. Kinetic properties of wild type and mutant Man5B were determined for pNP-β-D-mannopyranoside and pNP-β-D-cellobioside. The substrate concentrations ranged from 0.06 to 10 mM and reactions were performed at 65° C. in citrate buffer (50 mM sodium citrate, pH 5.5). The reactions were equilibrated to 65° C. using a thermostated Cary 300 UV-Vis spectrophotometer, and the reactions were initiated by the addition of wild type (5 nM, final concentration) or mutant (2 μM, final concentration) Man5B. The rate of pNP release was determined by continuously monitoring the absorbance at 400 nm. Initial rate data were then plotted against the substrate concentrations, and the values of the Michaelis-Menten constant (KM) and the maximum velocity (Vmax) were estimated from a nonlinear curve fit using GraphPad Prism v5.01 from GraphPad Software (San Diego, Calif.). The kcat was calculated as the quotient of the Vmax and the concentration of enzyme used in the reaction.
(§2) Site-directed mutagenesis. Mutagenesis was carried out using PCR-based […] […]
(§3) Next, to test whether the mutations introduced in Man5B had any effects on the catalytic activity of this enzyme, the catalytic parameters for the wild type and mutant enzymes were determined using pNP-β-D-cellobioside and pNP-β-D-mannopyranoside as substrates.

[3] = molecular target: T3, Caldanaerobius polysaccharolyticus endo-β-mannanase Man5B (SEQ ID NO: 31) variant E137A (Caldanaerobius polysaccharolyticus, UniProt D9J0D7, E137A); experiment: Kinetic properties with pNP-linked sugars (Man5B E137A); settings: relative to wild type
T3 sequence (D9J0D7 1-330 E137A): T2 sequence (D9J0D7 1-330 E137Q) with Q137A
Procedure: as §1, §2, §3

[4] = molecular target: T4, Caldanaerobius polysaccharolyticus endo-β-mannanase Man5B (SEQ ID NO: 31) variant E258A (Caldanaerobius polysaccharolyticus, UniProt D9J0D7, E258A); experiment: Kinetic properties with pNP-linked sugars (Man5B E258A); settings: relative to wild type
T4 sequence (D9J0D7 1-330 E258A): T2 sequence (D9J0D7 1-330 E137Q) with Q137E, E258A
Procedure: as §1, §2, §3

[5] = molecular target: T5, Caldanaerobius polysaccharolyticus endo-β-mannanase Man5B (SEQ ID NO: 31) variant E258Q (Caldanaerobius polysaccharolyticus, UniProt D9J0D7, E258Q); experiment: Kinetic properties with pNP-linked sugars (Man5B E258Q); settings: relative to wild type
T5 sequence (D9J0D7 1-330 E258Q): T2 sequence (D9J0D7 1-330 E137Q) with Q137E, E258Q
Procedure: as §1, §2, §3

[6] = molecular target: T1, Caldanaerobius polysaccharolyticus endo-β-mannanase Man5B, wild type, SEQ ID NO: 31; experiment: Kinetic properties with pNP-linked sugars (Man5B wild type); settings: reference
Procedure: The plasmid constructs were then introduced into E. coli BL-21 CodonPlus (DE3) RIL competent cells by heat shock, and grown overnight in lysogeny broth (LB) agar medium supplemented with ampicillin (100 μg/mL) and chloramphenicol (50 μg/mL) at 37° C. After 12 h, single colonies were selected and used to inoculate fresh LB (10 mL) supplemented with the antibiotics above at the same concentrations, followed by culturing with aeration for 8 h at 37° C. The pre-cultures were then inoculated into fresh LB (1 L) supplemented with ampicillin and chloramphenicol and the cultures were incubated at 37° C. with vigorous aeration (225 rpm/min). […] Aliquots of eluted fractions were analyzed by sodium dodecyl sulfate-polyacrylamide gel electrophoresis (SDS-PAGE) and protein bands were visualized by staining with Coomassie brilliant blue G-250. […] The UV absorbances of the protein solutions were recorded at 280 nm using a Nanoprop 1000 from Thermo Scientific (Waltham, Mass.) and the protein concentrations were calculated using the following extinction coefficients: Man5A-TM1, ε280 nm=189 mM^−1 cm^−1; Man5A-TM2, ε280 nm=113 mM^−1 cm^−1; Man5B, ε280 nm=103 mM^−1 cm^−1.
Determination of kinetic properties for wild type and mutant Man5B with pNP-linked sugars. Kinetic properties of wild type and mutant Man5B were determined for pNP-β-D-mannopyranoside and pNP-β-D-cellobioside. […]

SMILES	catalytic efficiency (kcat/Km), GM3 relative to GM2 [1] [fold]	rkcat (residual kcat) [2] [%]	rkcat (residual kcat) [3] [%]	rkcat (residual kcat) [4] [%]	rkcat (residual kcat) [5] [%]	rkcat (residual kcat) [6] [%]
OC[C@H]1O[C@H](OC[C@H]2OC(O)[C@@H](O)[C@@H](O)[C@@H]2O[C@@H]2O[C@H](CO)[C@@H](O[C@@H]3O[C@H](CO)[C@@H](O)[C@H](O)[C@@H]3O)[C@H](O)[C@@H]2O)[C@H](O)[C@@H](O)[C@H]1O (stereo partly drawn) [6-galactosyl-mannotriose, α-1,6-galactosyl-mannotriose]	20					
O=[N+]([O-])c1ccc(O[C@@H]2O[C@H](CO)[C@@H](O[C@@H]3O[C@H](CO)[C@@H](O)[C@H](O)[C@H]3O)[C@H](O)[C@H]2O)cc1 [pNP-cellobioside, pNP-β-D-cellobioside]		1.96	0.48	0.55	0.62	100
O=[N+]([O-])c1ccc(O[C@@H]2O[C@H](CO)[C@@H](O)[C@H](O)[C@@H]2O)cc1 [pNP-β-D-mannopyranoside]		0.04	0.04	0.04	0.03	100
